In the supplement of paper PMC10307832:

What was measured:
Test in all cases: relative viability (nuclei count vs DMSO), 5 days (fraction); higher = more cells survive
[1] = tested on: A-427
Summary of the method: (§1)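 One day after seeding in 1536-well plates, lung cancer cell lines were dosed by pin tool. Dosing was either single-drug or a fixed anchor-drug dose plus five library-drug doses (not always all listed) in √10 steps. After 5 days, nuclei were stained in one fix-and-stain step and counted on 4× images, and relative viability is the nuclei count of treated wells over that of vehicle wells, given as the median of duplicate plates.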

[2] = tested on: COR-L 105
Summary of the method: as §1

[3] = tested on: EPLC-272H
Summary of the method: as §1

[4] = tested on: HCC-366
Summary of the method: as §1

[5] = tested on: HCC-78
Summary of the method: as §1

[6] = tested on: HOP-62
Summary of the method: as §1

[7] = tested on: LC-2-ad
Summary of the method: as §1

[8] = tested on: LU99A
Summary of the method: as §1

[9] = tested on: LXF-289
Summary of the method: as §1

[10] = tested on: NCI-H1666
Summary of the method: as §1

[11] = tested on: NCI-H1792
Summary of the method: as §1

[12] = tested on: NCI-H1793
Summary of the method: as §1

[13] = tested on: NCI-H1915
Summary of the method: as §1

[14] = tested on: NCI-H1944
Summary of the method: as §1

[15] = tested on: NCI-H2009
Summary of the method: as §1

[16] = tested on: NCI-H2085
Summary of the method: as §1

[17] = tested on: NCI-H2170
Summary of the method: as §1

[18] = tested on: NCI-H358
Summary of the method: as §1

[19] = tested on: NCI-H460
Summary of the method: as §1

[20] = tested on: SK-LU-1
Summary of the method: as §1

[21] = tested on: SW 900
Summary of the method: as §1

[22] = tested on: UMC-11
Summary of the method: as §1

## Cc1sc2c(c1C)C(c1ccc(Cl)cc1)=N[C@@H](CC(=O)OC(C)(C)C)c1nnc(C)n1-2 [JQ1] + CC(=O)Nc1cccc(-n2c(=O)n(C3CC3)c(=O)c3c(Nc4ccc(I)cc4F)n(C)c(=O)c(C)c32)c1 [Trametinib] (partner 0.02 µM)
[1]; first compound 0.04 µM
  relative viability: 0.759
[1]; first compound 0.1265 µM
  relative viability: 0.843
[1]; first compound 0.4 µM
  relative viability: 0.674
[1]; first compound 1.265 µM
  relative viability: 0.466
[1]; first compound 4 µM
  relative viability: 0.52
[2]; first compound 0.04 µM
  relative viability: 0.46
[2]; first compound 0.1265 µM
  relative viability: 0.362
[2]; first compound 0.4 µM
  relative viability: 0.377
[2]; first compound 1.265 µM
  relative viability: 0.355
[2]; first compound 4 µM
  relative viability: 0.357
[3]; first compound 0.04 µM
  relative viability: 0.278
[3]; first compound 0.1265 µM
  relative viability: 0.252
[3]; first compound 0.4 µM
  relative viability: 0.273
[3]; first compound 1.265 µM
  relative viability: 0.254
[3]; first compound 4 µM
  relative viability: 0.215
[4]; first compound 0.04 µM
  relative viability: 0.407
[4]; first compound 0.4 µM
  relative viability: 0.372
[4]; first compound 1.265 µM
  relative viability: 0.235
[4]; first compound 4 µM
  relative viability: 0.237
[5]; first compound 0.04 µM
  relative viability: 0.791
[5]; first compound 0.1265 µM
  relative viability: 0.603
[5]; first compound 0.4 µM
  relative viability: 0.572
[5]; first compound 1.265 µM
  relative viability: 0.462
[5]; first compound 4 µM
  relative viability: 0.367
[6]; first compound 0.04 µM
  relative viability: 0.307
[6]; first compound 0.1265 µM
  relative viability: 0.262
[6]; first compound 0.4 µM
  relative viability: 0.156
[6]; first compound 1.265 µM
  relative viability: 0.119
[6]; first compound 4 µM
  relative viability: 0.106
[7]; first compound 0.04 µM
  relative viability: 0.866
[7]; first compound 0.1265 µM
  relative viability: 0.918
[7]; first compound 0.4 µM
  relative viability: 0.708
[7]; first compound 1.265 µM
  relative viability: 0.479
[7]; first compound 4 µM
  relative viability: 0.303
[8]; first compound 0.04 µM
  relative viability: 0.544
[8]; first compound 0.4 µM
  relative viability: 0.335
[8]; first compound 1.265 µM
  relative viability: 0.209
[8]; first compound 4 µM
  relative viability: 0.194
[9]; first compound 0.04 µM
  relative viability: 0.641
[9]; first compound 0.1265 µM
  relative viability: 0.698
[9]; first compound 0.4 µM
  relative viability: 0.676
[9]; first compound 1.265 µM
  relative viability: 0.607
[9]; first compound 4 µM
  relative viability: 0.477
[10]; first compound 0.04 µM
  relative viability: 0.92
[10]; first compound 0.1265 µM
  relative viability: 0.874
[10]; first compound 0.4 µM
  relative viability: 0.847
[10]; first compound 1.265 µM
  relative viability: 0.641
[10]; first compound 4 µM
  relative viability: 0.757
[11]; first compound 0.04 µM
  relative viability: 0.345
[11]; first compound 0.1265 µM
  relative viability: 0.421
[11]; first compound 0.4 µM
  relative viability: 0.286
[11]; first compound 1.265 µM
  relative viability: 0.191
[11]; first compound 4 µM
  relative viability: 0.186
[12]; first compound 0.04 µM
  relative viability: 0.483
[12]; first compound 0.1265 µM
  relative viability: 0.429
[12]; first compound 0.4 µM
  relative viability: 0.595
[12]; first compound 1.265 µM
  relative viability: 0.481
[12]; first compound 4 µM
  relative viability: 0.5
[13]; first compound 0.04 µM
  relative viability: 0.281
[13]; first compound 0.4 µM
  relative viability: 0.317
[13]; first compound 1.265 µM
  relative viability: 0.237
[13]; first compound 4 µM
  relative viability: 0.2
[14]; first compound 0.04 µM
  relative viability: 0.409
[14]; first compound 0.1265 µM
  relative viability: 0.394
[14]; first compound 0.4 µM
  relative viability: 0.305
[14]; first compound 1.265 µM
  relative viability: 0.288
[14]; first compound 4 µM
  relative viability: 0.278
[15]; first compound 0.04 µM
  relative viability: 0.234
[15]; first compound 0.1265 µM
  relative viability: 0.197
[15]; first compound 0.4 µM
  relative viability: 0.173
[15]; first compound 1.265 µM
  relative viability: 0.15
[15]; first compound 4 µM
  relative viability: 0.135
[16]; first compound 0.04 µM
  relative viability: 0.376
[16]; first compound 0.1265 µM
  relative viability: 0.551
[16]; first compound 0.4 µM
  relative viability: 0.407
[16]; first compound 1.265 µM
  relative viability: 0.248
[16]; first compound 4 µM
  relative viability: 0.239
[17]; first compound 0.04 µM
  relative viability: 0.861
[17]; first compound 0.1265 µM
  relative viability: 0.843
[17]; first compound 0.4 µM
  relative viability: 0.637
[17]; first compound 1.265 µM
  relative viability: 0.585
[17]; first compound 4 µM
  relative viability: 0.519
[18]; first compound 0.04 µM
  relative viability: 0.148
[18]; first compound 0.1265 µM
  relative viability: 0.143
[18]; first compound 0.4 µM
  relative viability: 0.122
[18]; first compound 1.265 µM
  relative viability: 0.133
[18]; first compound 4 µM
  relative viability: 0.127
[19]; first compound 0.04 µM
  relative viability: 0.129
[19]; first compound 0.1265 µM
  relative viability: 0.0734
[19]; first compound 0.4 µM
  relative viability: 0.0575
[19]; first compound 1.265 µM
  relative viability: 0.0314
[19]; first compound 4 µM
  relative viability: 0.0297
[20]; first compound 0.04 µM
  relative viability: 0.509
[20]; first compound 0.1265 µM
  relative viability: 0.444
[20]; first compound 0.4 µM
  relative viability: 0.434
[20]; first compound 1.265 µM
  relative viability: 0.359
[20]; first compound 4 µM
  relative viability: 0.195
[21]; first compound 0.04 µM
  relative viability: 0.804
[21]; first compound 0.1265 µM
  relative viability: 0.582
[21]; first compound 0.4 µM
  relative viability: 0.532
[21]; first compound 1.265 µM
  relative viability: 0.205
[21]; first compound 4 µM
  relative viability: 0.204
[22]; first compound 0.04 µM
  relative viability: 0.588
[22]; first compound 0.1265 µM
  relative viability: 0.543
[22]; first compound 0.4 µM
  relative viability: 0.377
[22]; first compound 1.265 µM
  relative viability: 0.204
[22]; first compound 4 µM
  relative viability: 0.194
